Data: patent US20160015786A1, “MOBILIZING AGENTS AND USES THEREFOR” (MATER MEDICAL RESEARCH INSTITUTE LIMITED, priority 2013, published 2016)

B1: G-CSF: cytokine granulocyte colony-stimulating factor, the main mobilizing agent used in the clinic; recombinant human G-CSF (Amgen) (protein, UniProt P09919 31-207, looked up)
Granulocyte …: TPLGPASSLPQSFLLKCLEQVRKIQGDGAALQEKLVSECATYKLCHPEELVLLGHSLGIPWAPLSSCPSQALQLAGCLSQLHSGLFLYQGLLQALEGISPELGPTLDTLQLDVADFATTIWQQMEELGMAPALQPTQGAMPAFASAFQRRAGGVLVASHLQSFLEVSYRVLRHLAQP
modifications: filgrastim

Columns and labels:
[1] = system: colony-forming cells (CFCs); experiment: Mobilization of colony-forming cells (CFC/CFU) to blood and spleen, colony assays; format: in vivo, C57BL/6 mice; conditions: for number of CFUs mobilized from the bone marrow to the blood and spleen: Example 7: D 60 mg/kg, E and F 20 mg/kg, + G-CSF vs vehicle + G-CSF, FIG. 13
Experimental: Mobilization of colony-forming cells (CFCs) to the blood and spleen were measured (FIG. 1B).
This was divided into two experiments in which G-CSF was administered for 2 days in one experiment and 4 days in the other (FIG. 2). […] Mobilization of CFCs, phenotypic Lin^−CD41^−Sca1^+Kit^+ HSPCs and Lin^−CD41^− Sca1^+Kit^+CD48^−CD150^+ HSCs were measured in blood and spleens.
Additional HIF-α potentiating agents in the form of PHD inhibitors were tested for their ability to enhance mobilization induced by G-CSF.
(§1) At the end of treatment, blood was harvested by cardiac puncture, mice were sacrificed by cervical dislocation and spleens harvested. Femurs were removed, cleaned and the bone marrow was flushed with 1 mL PBS+10% newborn calf serum (NCS).
The number of phenotypic hematopoietic stem and progenitor cells remaining in the bone marrow following treatment was measured by flow cytometry using antibodies specific for lineage markers (CD3, CD5, CD45R/B220, F4/80, Gr1, CD41, Ter119), Sca-1, Kit, CD48 and CD150. Similarly, the number of phenotypic hematopoietic stem cells mobilized into the blood and spleen were measured. Colony assays were also performed on blood and spleen to determine the number of colony forming cells per mL of blood and per spleen. […] Levels of significance for differences were calculated using the Student's t-test.
All procedures were approved by the animal experimentation ethics committee of the University of Queensland. […] Plerixafor (AMD3100 octohydrochloride, Tocris Bioscience, Bristol, UK) was injected intraperitoneally as a single 16 mg/kg dose corresponding to 10 mg/kg of AMD3100 base. Tissues were harvested 1 h after Plerixafor administration. […] Control mice were injected with an equivalent volume of saline. At specified time-points, mice were anesthetized with isoflurane before cardiac puncture to harvest blood. Mice were then euthanized by cervical dislocation and BM and bones harvested.
Optimal concentrations of mouse IL-3, IL-6 and soluble kit ligand were added as conditioned media from stably transfected BHK cell lines. Colonies were counted after 7 days culture at 37° C. in a humidified incubator containing 5% CO2.

[2] = system: hematopoietic stem and progenitor cells; experiment: Phenotypic HSCs, HSPCs and myeloid progenitors in blood, spleen and bone marrow by flow cytometry; format: in vivo, C57BL/6 mice; conditions: for total number of HSCs and progenitors in the BM: Example 7: Compound D 60 mg/kg; for total number of HSCs and progenitors in the BM / total number of myeloid progenitors (LKS−) mobilized: E and F 20 mg/kg, + G-CSF vs vehicle + G-CSF; for total number of myeloid progenitors (LKS−) mobilized: Example 7: D 60 mg/kg
Experimental: (§2) Additional HIF-α potentiating agents in the form of PHD inhibitors were tested for their ability to enhance mobilization induced by G-CSF. Compound A, Compound B or Compound C, were tested in male, 7 weeks-old C57BL/6 mice. Mice were injected twice daily sub-cutaneously with rhuG-CSF at a dose of 125 μg/kg per injection for four days. Mice were gavaged with 20 mg/kg Compound A, Compound B, Compound C or vehicle control once daily for three days beginning on day 1 of the experiment.
as §1
The number of phenotypic hematopoietic stem and progenitor cells remaining in the bone marrow following treatment was measured by flow cytometry using antibodies specific for lineage markers (CD3, CD5, CD45R/B220, F4/80, Gr1, CD41, Ter119), Sca-1, Kit, CD48 and CD150. Similarly, the number of phenotypic hematopoietic stem cells mobilized into the blood and spleen were measured. Colony assays were also performed on blood and spleen to determine the number of colony forming cells per mL of blood and per spleen. All results are presented as mean f standard deviation with n=6 per groups. Levels of significance for differences were calculated using the Student's t-test.
All procedures were approved by the animal experimentation ethics committee of the University of Queensland. All experiments were performed on nine to twelve-week old C57BL/6 male mice or genetically modified mice back-crossed at least 10 times into C57BL/6. Recombinant human G-CSF (Amgen, Thousand Oaks, Calif.) was injected twice daily subcutaneously at 125 μg/kg per injection for up to 4 consecutive days. Plerixafor (AMD3100 octohydrochloride, Tocris Bioscience, Bristol, UK) was injected intraperitoneally as a single 16 mg/kg dose corresponding to 10 mg/kg of AMD3100 base. Tissues were harvested 1 h after Plerixafor administration. […] Compounds H and J were administered at 60 mg/kg and Compound K was administered at 100 mg/kg. Control mice were injected with an equivalent volume of saline. At specified time-points, mice were anesthetized with isoflurane before cardiac puncture to harvest blood. Mice were then euthanized by cervical dislocation and BM and bones harvested.
Following flushing with PBS plus 2% NCS, enriched central BM cells were pelleted at 370×g for 5 minutes at 4° C. and resuspended in CD16/CD32 hybridoma 2.4G2 supernatant to block IgGFc receptors. HSCs were stained with the biotinylated lineage antibody cocktail (CD3, CD5, B220, CD11b, Gr-1, Ter119) and biotinylated CD41 together with streptavidin (SAV)-Pacific Blue, anti-Sca-1-PECY7, anti-KIT-APC, CD48-FITC and CD150-PE as previously described (17). Data were acquired on a CyAn (Dako Cytomation) flow cytometer and analyzed following compensation with single color controls using FlowJo software (Tree Star, Ashland, Oreg.).

white blood cells = experiment: White blood cell number per mL of blood after mobilization treatment; format: in vivo, C57BL/6 mice; conditions: Example 7: D 60 mg/kg, E 20 mg/kg, + G-CSF vs vehicle + G-CSF
Experimental: as §2, §1

[3] = Spleen weight after mobilization treatment; format: in vivo, C57BL/6 mice; conditions: Example 7: D 60 mg/kg, E and F 20 mg/kg, + G-CSF vs vehicle + G-CSF
Experimental: as §2, with “Mice were gavaged with 20 mg/kg Compound A, Compound B, Compound C or vehicle control once daily for three days beginning on day 1 of the experiment.” left out
as §1

CD34+ cells = conditions: cited from earlier work
[4] = system: colony-forming cells (CFCs); conditions: Plerixafor; reference (7); cited from earlier work
[5] = Example 7: 20 mg/kg + G-CSF vs vehicle + G-CSF, FIGS. 12A-B

Row | Molecule | number of CFUs mobilized from the bone marrow to the blood and spleen [1] | total number of HSCs and progenitors in the BM [2] | total number of myeloid progenitors (LKS−) mobilized ([2]; FIGS. 12A-B) | number of white blood cells per mL of blood (white blood cells) | increase in spleen weight [3] | further results
1 | O=C(O)CNC(=O)c1c(O)n(C2CCCCC2)c(=O)n(C2CCCCC2)c1=O [Compound D, [(1,3-Dicyclohexyl-6-hydroxy-2,4-dioxo-1,2,3,4-tetrahydro-pyrimidine-5-carbonyl)-amino]-acetic acid] | significantly increased | did not significantly alter | significantly increased | significant increase | approximately 2 fold | –
2 | CC(C)c1nn(Cc2ccc(-c3ccc(F)cc3)cc2F)c(=O)c(C(=O)NCC(=O)O)c1O [Compound E, {[2-(3,4′-Difluoro-biphenyl-4-ylmethyl)-5-hydroxy-6-isopropyl-3-oxo-2,3-dihydro-pyridazine-4-carbonyl]-amino}-acetic acid] | significantly increased | did not significantly alter | significant increase | significant increase | approximately 2 fold | total number of HSCs (LSK48-150+) mobilized from the bone marrow [2, 5]: significant increase; total number of HSPCs (LSK48+ and LSK) mobilized from the bone marrow [2, 5]: significant increase
3 | c1cc(CN2CCCNCCNCCCNCC2)ccc1CN1CCCNCCNCCCNCC1 [Plerixafor, 1,1′-[1,4-phenylenebis(methylene)]-bis-1,4,8,11-tetra-azacyclotetradecane] | – | – | – | – | – | mobilization of HSPC to the spleen ([1]; 1 hr following Plerixafor treatment with or without Compound X, FIG. 1D): no significant mobilization; enhancement of CFC mobilization in response to G-CSF ([1]; Plerixafor 16 mg/kg 1 hour prior harvest + 2 days G-CSF, p<0.005): 10 fold; patients who failed with G-CSF alone who still fail to mobilize adequately (CD34+ cells; G-CSF and Plerixafor, references (8-9)): 40%; patients who previously failed to mobilize with G-CSF alone who reach the minimal threshold (CD34+ cells; Plerixafor daily 1 hr prior to aphaeresis from day 4 of G-CSF, references (8-9)): approximately 60%; time of peak mobilization post-injection [4]: 1 h
4 | B1 | – | – | – | – | – | chemotherapy-treated patients who fail to reach the minimal threshold of 2×10^6 CD34+ cells/kg (CD34+ cells; autologous setting, in response to G-CSF, reference (1)): 30-60%
